Type: physicochemical
Conditions: 37 °C, mean ± SD, triplicate; for Thermodynamic solubility in Carbitol: cosolvent; for Thermodynamic solubility in Maisine 35-1: long-chain mono-; for Thermodynamic solubility in Maisine 35-1 / Thermodynamic solubility in Capmul MCM EP: di-, triglyceride; for Thermodynamic solubility in Capmul MCM EP: medium-chain mono-; for Thermodynamic solubility in Cremophor EL: surfactant (≤3% w/w water)

CC(C)(C)NC(=O)[C@@H]1C[C@@H]2CCCC[C@@H]2CN1C[C@@H](O)[C@H](Cc1ccccc1)NC(=O)[C@H](CC(N)=O)NC(=O)c1ccc2ccccc2n1 [saquinavir]
Thermodynamic solubility in Carbitol: ≥317 mg/g
Thermodynamic solubility in Maisine 35-1: ≥123 mg/g
Thermodynamic solubility in Capmul MCM EP: ≥288 mg/g

COC(=O)Nc1nc2ccc(Sc3ccccc3)cc2[nH]1 [fenbendazole]
Thermodynamic solubility in Carbitol: 4.13 ± 0.28 mg/g
Thermodynamic solubility in Maisine 35-1: 0.69 ± 0.11 mg/g
Thermodynamic solubility in Capmul MCM EP: 1.28 ± 0.09 mg/g
Thermodynamic solubility in Cremophor EL: 2.07 ± 0.09 mg/g

OCCN(CCO)c1nc(N2CCCCC2)c2nc(N(CCO)CCO)nc(N3CCCCC3)c2n1 [dipyridamole]
Thermodynamic solubility in Carbitol: 43.1 ± 2.40 mg/g
Thermodynamic solubility in Maisine 35-1: 3.02 ± 0.16 mg/g
Thermodynamic solubility in Capmul MCM EP: 12.3 ± 0.36 mg/g
Thermodynamic solubility in Cremophor EL: 9.57 ± 0.29 mg/g

O=C(O)c1cc(/N=N/c2ccc(S(=O)(=O)Nc3ccccn3)cc2)ccc1O [sulfasalazine]
Thermodynamic solubility in Carbitol: 16.4 ± 0.72 mg/g
Thermodynamic solubility in Maisine 35-1: 0.16 ± 0.02 mg/g
Thermodynamic solubility in Capmul MCM EP: 3.16 ± 0.06 mg/g
Thermodynamic solubility in Cremophor EL: 13.1 ± 1.02 mg/g

CCOc1nc2cccc(C(=O)O)c2n1Cc1ccc(-c2ccccc2-c2nnn[nH]2)cc1 [candesartan]
Thermodynamic solubility in Carbitol: 20.5 ± 1.26 mg/g
Thermodynamic solubility in Maisine 35-1: ≤0.41 mg/g
Thermodynamic solubility in Capmul MCM EP: 3.19 ± 0.14 mg/g
Thermodynamic solubility in Cremophor EL: 11.3 ± 0.67 mg/g

COc1ccc(Cl)cc1C(=O)NCCc1ccc(S(=O)(=O)NC(=O)NC2CCCCC2)cc1 [glibenclamide]
Thermodynamic solubility in Carbitol: 21.1 ± 0.46 mg/g
Thermodynamic solubility in Maisine 35-1: 0.52 ± 0.14 mg/g
Thermodynamic solubility in Capmul MCM EP: 5.49 ± 0.26 mg/g
Thermodynamic solubility in Cremophor EL: 11.2 ± 1.01 mg/g

Clc1ccccc1C(c1ccccc1)(c1ccccc1)n1ccnc1 [clotrimazole]
Thermodynamic solubility in Carbitol: 135.0 ± 3.57 mg/g
Thermodynamic solubility in Maisine 35-1: 75.4 ± 8.95 mg/g
Thermodynamic solubility in Capmul MCM EP: 136.7 ± 5.94 mg/g
Thermodynamic solubility in Cremophor EL: 44.1 ± 3.01 mg/g

NC(=O)N1c2ccccc2C=Cc2ccccc21 [carbamazepine]
Thermodynamic solubility in Carbitol: 82.9 ± 1.80 mg/g
Thermodynamic solubility in Maisine 35-1: 30.0 ± 1.66 mg/g
Thermodynamic solubility in Capmul MCM EP: 55.5 ± 3.23 mg/g
Thermodynamic solubility in Cremophor EL: 34.5 ± 1.06 mg/g

CCC(C)n1ncn(-c2ccc(N3CCN(c4ccc(OCC5COC(Cn6cncn6)(c6ccc(Cl)cc6Cl)O5)cc4)CC3)cc2)c1=O (stereo not drawn) [itraconazole]
Thermodynamic solubility in Carbitol: 6.30 ± 0.55 mg/g
Thermodynamic solubility in Maisine 35-1: 2.26 ± 0.16 mg/g
Thermodynamic solubility in Capmul MCM EP: 5.60 ± 0.67 mg/g
Thermodynamic solubility in Cremophor EL: 1.92 ± 0.29 mg/g

Cc1cc(-n2c(=O)[nH]c(=O)n(C)c2=O)ccc1Oc1ccc(SC(F)(F)F)cc1 [toltrazuril]
Thermodynamic solubility in Carbitol: 50.2 ± 2.47 mg/g
Thermodynamic solubility in Maisine 35-1: 7.90 ± 1.03 mg/g
Thermodynamic solubility in Capmul MCM EP: 11.8 ± 0.59 mg/g
Thermodynamic solubility in Cremophor EL: 19.7 ± 3.11 mg/g

O=C(Nc1ccc([N+](=O)[O-])cc1Cl)c1cc(Cl)ccc1O [niclosamide]
Thermodynamic solubility in Carbitol: 49.6 ± 2.62 mg/g
Thermodynamic solubility in Maisine 35-1: 3.97 ± 0.19 mg/g
Thermodynamic solubility in Capmul MCM EP: 10.1 ± 0.40 mg/g
Thermodynamic solubility in Cremophor EL: 44.1 ± 1.75 mg/g

CCCCN(CCCC)CCC(O)c1cc2c(Cl)cc(Cl)cc2c2cc(C(F)(F)F)ccc12 (stereo not drawn) [halofantrine]
Thermodynamic solubility in Carbitol: 79.3 ± 7.90 mg/g
Thermodynamic solubility in Maisine 35-1: 71.2 ± 4.58 mg/g
Thermodynamic solubility in Capmul MCM EP: 52.6 ± 3.01 mg/g
Thermodynamic solubility in Cremophor EL: 27.9 ± 0.79 mg/g

CC(C)/N=c1\cc2n(-c3ccc(Cl)cc3)c3ccccc3nc-2cc1Nc1ccc(Cl)cc1 [clofazimine]
Thermodynamic solubility in Carbitol: 22.8 ± 0.54 mg/g
Thermodynamic solubility in Maisine 35-1: 11.7 ± 0.24 mg/g
Thermodynamic solubility in Capmul MCM EP: 16.3 ± 0.44 mg/g
Thermodynamic solubility in Cremophor EL: 15.9 ± 0.83 mg/g

COc1ccc2c(c1OC)C(=O)O[C@@H]2[C@H]1c2c(cc3c(c2OC)OCO3)CCN1C [noscapine]
Thermodynamic solubility in Carbitol: 25.6 ± 1.00 mg/g
Thermodynamic solubility in Maisine 35-1: 5.36 ± 0.61 mg/g
Thermodynamic solubility in Capmul MCM EP: 7.23 ± 0.20 mg/g
Thermodynamic solubility in Cremophor EL: 12.3 ± 0.25 mg/g

CCN(CC)C(=S)SSC(=S)N(CC)CC [disulfiram]
Thermodynamic solubility in Carbitol: 162.6 ± 8.46 mg/g
Thermodynamic solubility in Maisine 35-1: 49.0 ± 3.05 mg/g
Thermodynamic solubility in Capmul MCM EP: 47.2 ± 2.05 mg/g
Thermodynamic solubility in Cremophor EL: 88.8 ± 3.66 mg/g

COc1cc(C)c(/C=C/C(C)=C/C=C/C(C)=C/C(=O)O)c(C)c1C [acitretin]
Thermodynamic solubility in Carbitol: 3.52 ± 0.20 mg/g
Thermodynamic solubility in Maisine 35-1: 0.62 ± 0.06 mg/g
Thermodynamic solubility in Capmul MCM EP: 1.54 ± 0.10 mg/g
Thermodynamic solubility in Cremophor EL: 2.85 ± 0.14 mg/g

O=C(O)c1cc(-c2ccc(F)cc2F)ccc1O [diflunisal]
Thermodynamic solubility in Carbitol: 286.3 ± 13.4 mg/g
Thermodynamic solubility in Maisine 35-1: 31.6 ± 0.99 mg/g
Thermodynamic solubility in Capmul MCM EP: 53.4 ± 1.29 mg/g
Thermodynamic solubility in Cremophor EL: 157.9 ± 6.54 mg/g

CCCSc1ccc2nc(NC(=O)OC)[nH]c2c1 [albendazole]
Thermodynamic solubility in Carbitol: 5.99 ± 0.19 mg/g
Thermodynamic solubility in Maisine 35-1: 3.86 ± 0.21 mg/g
Thermodynamic solubility in Capmul MCM EP: 3.17 ± 0.10 mg/g
Thermodynamic solubility in Cremophor EL: 2.75 ± 0.14 mg/g

O=C(C1CCCCC1)N1CC(=O)N2CCc3ccccc3C2C1 (stereo not drawn) [praziquantel]
Thermodynamic solubility in Carbitol: 116.9 ± 14.8 mg/g
Thermodynamic solubility in Maisine 35-1: 85.9 ± 5.32 mg/g
Thermodynamic solubility in Capmul MCM EP: 184.9 ± 12.4 mg/g
Thermodynamic solubility in Cremophor EL: 45.4 ± 3.51 mg/g

COc1ccc2c(c1)c(CC(=O)O)c(C)n2C(=O)c1ccc(Cl)cc1 [indomethacin]
Thermodynamic solubility in Carbitol: 187.4 ± 7.08 mg/g
Thermodynamic solubility in Maisine 35-1: 13.0 ± 0.88 mg/g
Thermodynamic solubility in Capmul MCM EP: 28.6 ± 1.30 mg/g
Thermodynamic solubility in Cremophor EL: 71.6 ± 4.57 mg/g

CCOc1nc2cccc(C(=O)OC(C)OC(=O)OC3CCCCC3)c2n1Cc1ccc(-c2ccccc2-c2nnn[nH]2)cc1 (stereo not drawn) [candesartan cilexetil]
Thermodynamic solubility in Carbitol: 77.0 ± 2.04 mg/g
Thermodynamic solubility in Maisine 35-1: 1.99 ± 0.19 mg/g
Thermodynamic solubility in Capmul MCM EP: 9.07 ± 0.38 mg/g
Thermodynamic solubility in Cremophor EL: 26.4 ± 1.46 mg/g

C#C[C@]1(O)CC[C@H]2[C@@H]3CCc4cc(O)ccc4[C@H]3CC[C@@]21C [ethinylestradiol]
Thermodynamic solubility in Carbitol: 247.1 ± 8.93 mg/g
Thermodynamic solubility in Maisine 35-1: 22.1 ± 1.83 mg/g
Thermodynamic solubility in Capmul MCM EP: 56.3 ± 1.76 mg/g
Thermodynamic solubility in Cremophor EL: 163.9 ± 10.1 mg/g

CCOC(=O)C1=C(C)NC(C)=C(C(=O)OC)C1c1cccc(Cl)c1Cl (stereo not drawn) [felodipine]
Thermodynamic solubility in Carbitol: 217.2 ± 16.0 mg/g
Thermodynamic solubility in Maisine 35-1: 37.7 ± 1.37 mg/g
Thermodynamic solubility in Capmul MCM EP: 80.2 ± 2.22 mg/g
Thermodynamic solubility in Cremophor EL: 125.1 ± 6.23 mg/g

Cc1cccc(Nc2ccccc2C(=O)O)c1C [mefenamic acid]
Thermodynamic solubility in Carbitol: 43.6 ± 1.52 mg/g
Thermodynamic solubility in Maisine 35-1: 5.38 ± 0.40 mg/g
Thermodynamic solubility in Capmul MCM EP: 9.63 ± 0.40 mg/g
Thermodynamic solubility in Cremophor EL: 30.7 ± 0.89 mg/g

O=C(CCCN1CCC(O)(c2ccc(Cl)cc2)CC1)c1ccc(F)cc1 [haloperidol]
Thermodynamic solubility in Carbitol: 27.2 ± 1.82 mg/g
Thermodynamic solubility in Maisine 35-1: 3.57 ± 0.16 mg/g
Thermodynamic solubility in Capmul MCM EP: 13.4 ± 0.51 mg/g
Thermodynamic solubility in Cremophor EL: 11.3 ± 0.82 mg/g

COC1=CC(=O)C[C@@H](C)[C@]12Oc1c(Cl)c(OC)cc(OC)c1C2=O [griseofulvin]
Thermodynamic solubility in Carbitol: 18.9 ± 0.99 mg/g
Thermodynamic solubility in Maisine 35-1: 2.43 ± 0.05 mg/g
Thermodynamic solubility in Capmul MCM EP: 5.56 ± 0.21 mg/g
Thermodynamic solubility in Cremophor EL: 9.70 ± 0.36 mg/g

CC(=O)[C@H]1CC[C@H]2[C@@H]3CCC4=CC(=O)CC[C@]4(C)[C@H]3CC[C@]12C [progesterone]
Thermodynamic solubility in Carbitol: 67.02 ± 1.36 mg/g
Thermodynamic solubility in Maisine 35-1: 66.2 ± 4.87 mg/g
Thermodynamic solubility in Capmul MCM EP: 99.1 ± 2.94 mg/g
Thermodynamic solubility in Cremophor EL: 41.1 ± 1.27 mg/g

Cc1c(Cl)cccc1Nc1ccccc1C(=O)O [tolfenamic acid]
Thermodynamic solubility in Carbitol: 85.5 ± 4.29 mg/g
Thermodynamic solubility in Maisine 35-1: 14.1 ± 1.18 mg/g
Thermodynamic solubility in Capmul MCM EP: 26.0 ± 1.45 mg/g
Thermodynamic solubility in Cremophor EL: 70.6 ± 3.87 mg/g
